Test results taken from ChEMBL document CHEMBL3627641, “Identification of a new p53/MDM2 inhibitor motif inspired by studies of chlorofusin” (Bioorg Med Chem Lett, 2015).

Tests used:
SJSA-1 = assay: Cytotoxic activity against human SJSA1 cells; type: functional, cell-based
A-375 = assay: Cytotoxic activity against human A375 cells; type: functional, cell-based
[1] = Homo sapiens, SJSA-1, read-out: IC50

SMILES | IC50 (SJSA-1; [1]) [µM] | IC50 (A-375; Homo sapiens, A-375, read-out: IC50) [µM] | IC50 (SJSA-1; sjsa-1) | IC50 (A-375; a-375)
O=C(N[C@@H](CCCn1cc(-c2ccc(C(F)(F)F)cc2)nn1)C(=O)O)OCC1c2ccccc2-c2ccccc21 | 31.2 | 49.3 |  | 
O=C(N[C@@H](CCCn1cc(-c2ccc(Br)cc2)nn1)C(=O)O)OCC1c2ccccc2-c2ccccc21 |  |  | Not Active | Not Active
O=C(N[C@@H](CCCn1cc(-c2ccc(Cl)cc2)nn1)C(=O)O)OCC1c2ccccc2-c2ccccc21 |  |  | Not Active | Not Active
CC(C)(C)OC(=O)Nc1ccc(-c2cn(CCC[C@H](NC(=O)OCC3c4ccccc4-c4ccccc43)C(=O)O)nn2)cc1 |  |  | Not Active | Not Active
COc1ccc(-c2cn(CCC[C@H](NC(=O)OCC3c4ccccc4-c4ccccc43)C(=O)O)nn2)cc1 |  |  | Not Active | Not Active
Cc1ccc(-c2cn(CCC[C@H](NC(=O)OCC3c4ccccc4-c4ccccc43)C(=O)O)nn2)cc1 | 33.1 |  |  | Not Active
O=C(N[C@@H](CCCn1cc(-c2ccc(I)cc2)nn1)C(=O)O)OCC1c2ccccc2-c2ccccc21 |  |  | Not Active | Not Active
